# Test results reported in patent US7119073B2, “Peptides and their use as inhibitors of hepatitis C virus ns3 protease” (Istituto Di Ricerche Di Biologia Molecolare P. Angeletti SpA, priority 2001, dated 2006).
# Read-outs that look alike come from different tables or passages of the source.
# Columns and labels:
# [1] = target: T1, NS3 protease domain complexed to a modified form of the NS4A peptide (Pep4AK) (Hepatitis C virus genotype 1b, UniProt P26663); test: HCV NS3 protease domain/NS4A cofactor peptide assay (Assay B); type: biochemical
# T1 construct: NS3 protease domain (residues 1027–1206 of the HCV polyprotein)
# T1 sequence (P26663 1027-1206, other chains not shown): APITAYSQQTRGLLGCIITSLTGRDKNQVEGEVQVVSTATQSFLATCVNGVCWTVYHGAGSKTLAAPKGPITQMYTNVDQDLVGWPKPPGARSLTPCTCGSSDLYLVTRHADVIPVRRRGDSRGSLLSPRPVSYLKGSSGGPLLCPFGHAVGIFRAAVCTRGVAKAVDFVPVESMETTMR
# [2] = target: T2, full length NS3 protein noncovalently complexed with the full-length NS4A cofactor protein (NS3/NS4A complex) (Hepatitis C virus genotype 1b, UniProt P26663); test: Full-length NS3-NS4A heterodimer protein assay (Assay A); type: biochemical, hepatitis C virus (HCV)
# T2 construct: full length NS3 protein spanning residues 1027–1657 of the HCV polyprotein
# T2 sequence (P26663 1027-1657): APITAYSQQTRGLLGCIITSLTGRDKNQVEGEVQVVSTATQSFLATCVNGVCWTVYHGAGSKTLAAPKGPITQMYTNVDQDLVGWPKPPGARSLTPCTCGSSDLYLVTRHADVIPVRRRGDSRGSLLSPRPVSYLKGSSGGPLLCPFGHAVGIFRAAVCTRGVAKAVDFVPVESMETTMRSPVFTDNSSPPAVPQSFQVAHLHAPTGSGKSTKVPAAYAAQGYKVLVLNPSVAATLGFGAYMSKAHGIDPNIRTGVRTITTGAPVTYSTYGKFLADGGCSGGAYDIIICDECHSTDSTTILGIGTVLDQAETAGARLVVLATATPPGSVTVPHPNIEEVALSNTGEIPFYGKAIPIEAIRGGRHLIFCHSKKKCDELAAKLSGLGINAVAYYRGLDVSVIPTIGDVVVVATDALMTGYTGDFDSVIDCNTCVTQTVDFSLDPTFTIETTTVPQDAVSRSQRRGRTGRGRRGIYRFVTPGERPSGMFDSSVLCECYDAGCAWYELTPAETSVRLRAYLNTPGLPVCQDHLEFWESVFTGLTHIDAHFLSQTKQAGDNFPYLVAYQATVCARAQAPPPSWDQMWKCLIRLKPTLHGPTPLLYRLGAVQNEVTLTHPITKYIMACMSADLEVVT
# T2 sequence (P26663 1658-1711): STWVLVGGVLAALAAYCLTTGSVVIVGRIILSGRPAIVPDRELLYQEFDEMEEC
# Protocol: Full-Length NS3-NS4A Heterodimer Protein Assay (Assay A)
# (Gallinari, P., Paolini, C., Brennan, D., Nardi, C., Steinkühler, C. and De Francesco, R. Modulation of hepatitis C virus NS3 protease and helicase activities through the interaction with NS4A. Biochemistry 38, 5620–5632, 1999)
# In this assay the full length NS3 protein spanning residues 1027–1657 of the HCV polyprotein, noncovalently complexed with the full-length NS4A cofactor protein (residues 1658–1711) was used. Assays were performed in 60 μl of a buffer containing 50 mM Hepes pH 7.5, 0.15 M NaCl, 0.1% (v/v) Triton X-100, 15% (v/v) glycerol, 10 mM DTT, 2 nM NS3/NS4A complex. To this assay mix 10 μM (final concentration) of a peptide substrate corresponding to the NS5AB cleavage site and having the sequence of the NS5A-NS5B peptide, were added. Incubation times at 23° C. were adjusted to obtain <10% conversion. Reactions were stopped by the addition of 40 μl of 1% TFA. Cleavage was determined by HPLC using a Merck-Hitachi chromatograph equipped with an autosampler. 80 μl samples were injected on a Lichrospher C18 reversed phase cartridge column (4×74 mm, 5 μm, Merck) and fragments were separated using a 10–40% acetonitrile gradient at 5%/min using a flow rate of 2.5 ml/min. Peak detection was done by monitoring both the absorbance at 220 nm and tryptophan fluorescence (λex=280 nm, λem=350 nm). Cleavage products were quantitated by integration of chromatograms with respect to appropriate standards. Kinetic parameters were calculated from nonlinear least-squares fit of initial rates as a function of substrate concentration with the help of a Kaleidagraph software, assuming Michaelis-Menten kinetics.
# Ki values of peptide inhibitors were calculated from substrate titration experiments performed in the presence of increasing amounts of inhibitor. Experimental data sets were simultaneously fitted to eg.1 using a multicurve fit macro with the help of a Sigmaplot software: V=(VmaxS)/(Km([…])+S); (eq.1) Alternatively, Ki values were derived from IC50 values, calculated using a four-parameter logistic function, according to eq.2: IC50=(1+S/Km)Ki (eq.2)
# [3] = Table 5, full-length NS3/NS4A, read-out: AssayA
Structure (SMILES),"IC50 [2, 3] [µM]",further results
COC(=O)c1ccc(CCNC(=O)[C@H](CS)NC(=O)[C@H](CC(C)C)NC(=O)[C@H](CCC(=O)O)NC(=O)OCC(C)C)c(Cl)c1 [Compound 177],,"IC50 ([1]; Table 1, NS3 protease domain/Pep4AK, 4AB peptide substrate, read-out: Assay B): < 10 µM; IC50 [2]: < 100 µM"
"CC(C)C[C@H](NC(=O)C1(Cc2ccsc2C(=O)O)Cc2ccccc2N1)C(=O)N[C@@H](CC(F)F)C(=O)NCCc1ccc(C(=O)O)cc1Cl (single isomer, unassigned) [Compound 705]",,"IC50 ([1]; NS3 protease domain/NS4A cofactor peptide assay, read-out: Assay B (IC50 class)): < 10 µM; IC50 [2]: < 100 µM"
CC(C)COC(=O)N[C@H](C(=O)N1C[C@H]([S+]([O-])C2CCCCC2)C[C@H]1C(=O)N[C@@H](CC(F)F)C(=O)NCCc1c(F)cc(C(=O)O)cc1F)C(C)C (mixture of isomers) [Compound 552],< 1,
CC(C)COC(=O)N[C@H](C(=O)N1C[C@H](c2ccccc2)C[C@H]1C(=O)N[C@@H](CC(F)F)C(=O)NCCc1[nH]c2ccccc2c1CCC(=O)O)C(C)C [Compound 572],< 100,
CC(C)COC(=O)N[C@H](C(=O)N1C[C@H](S(=O)(=O)C2CCCCC2)C[C@H]1C(=O)N[C@@H](CC(F)F)C(=O)NCCc1c(F)cc(-c2nn[nH]n2)cc1F)C(C)C [Compound 556],< 1,
CC(C)COC(=O)N[C@H](C(=O)N1C[C@H](C2CCCCC2)C[C@H]1C(=O)N[C@@H](CC(F)F)C(=O)NCCc1c(F)cc(C(=O)NS(C)(=O)=O)cc1F)C(C)C [Compound 557],< 1,
COCCOCO[C@@H]1C[C@@H](C(=O)N[C@@H](CC(F)F)C(=O)NCCc2c(F)cc(C(=O)O)cc2F)N(C(=O)[C@@H](NC(=O)OCC(C)C)C(C)C)C1 [Compound 505],< 10,
CC(C)COC(=O)N[C@H](C(=O)N1C[C@@H](OCc2ccccc2)C[C@H]1C(=O)N[C@@H](CC(F)F)C(=O)NCCc1c(F)cc(C(=O)O)cc1F)C(C)C [Compound 527],< 10,
CC(C)[C@H](NC(=O)OC1CCCC1)C(=O)N1C[C@H](C2CCCCC2)C[C@H]1C(=O)N[C@@H](CC(F)F)C(=O)NCCc1c(F)cc(C(=O)O)cc1F [Compound 541],< 1,
CC(C)COC(=O)N[C@@H](CCC(=O)O)C(=O)N1C[C@H](c2ccccc2)C[C@H]1C(=O)N[C@@H](CS)C(=O)NCCc1ccc(C(=O)O)cc1Cl [Compound 520],< 10,
CCCS(=O)(=O)[C@@H]1C[C@@H](C(=O)N[C@@H](CC(F)F)C(=O)NCCc2c(F)cc(C(=O)O)cc2F)N(C(=O)[C@@H](NC(=O)OCC(C)C)C(C)C)C1 [Compound 550],< 1,
CC(C)[C@H](NC(=O)OCC1CC1)C(=O)N1C[C@H](C2CCCCC2)C[C@H]1C(=O)N[C@@H](CC(F)F)C(=O)NCCc1c(F)cc(C(=O)O)cc1F [Compound 540],< 1,
CC(C)COC(=O)NC(CCC(=O)O)C(=O)N1CCCC1C(=O)NC(CS)C(=O)NCCc1ccccc1Cl (centres unmarked) [Compound 501],< 100,
CC(C)COC(=O)N[C@H](C(=O)N1C[C@H](c2ccccc2)C[C@H]1C(=O)N[C@@H](CC(F)F)C(=O)NCCc1cccc(OC(C(=O)O)c2ccc(Br)cc2)c1)C(C)C (mixture of isomers) [Compound 570],< 1,
CC(C)COC(=O)N[C@H](C(=O)N1C[C@H](OCc2ccc(C(=O)O)cc2)C[C@H]1C(=O)N[C@@H](CC(F)F)C(=O)NCCc1c(Cl)cccc1Cl)C(C)C [Compound 509],< 100,
CC(C)COC(=O)N[C@H](C(=O)N1C[C@H](c2ccccc2)C[C@H]1C(=O)N[C@@H](CC(F)F)C(=O)NCCc1c(F)cc(C(=O)OC(C)C)cc1F)C(C)C [Compound 524],< 100,
CC(C)COC(=O)N[C@H](C(=O)N1C[C@H](C2CCCCC2)C[C@H]1C(=O)N[C@@H](CC(F)F)C(=O)NCCc1ccc(C(=O)O)cc1Cl)C(C)C [Compound 532],< 1,
COc1cccc(S[C@@H]2C[C@@H](C(=O)N[C@@H](CC(F)F)C(=O)NCCc3c(F)cc(C(=O)O)cc3F)N(C(=O)[C@@H](NC(=O)OCC(C)C)C(C)C)C2)c1 [Compound 545],< 1,
"CC(C)C[C@H](NC(=O)C1(Cc2ccsc2C(=O)O)Cc2ccccc2N1)C(=O)N[C@@H](CC(F)F)C(=O)NCCc1cc2ccccc2[nH]1 (single isomer, unassigned) [Compound 707b]",,"IC50 ([2]; full-length NS3-NS4A heterodimer protein assay, read-out: Assay A (IC50 class)): < 100 µM"
CC(C)COC(=O)N[C@H](C(=O)N1C[C@H](c2ccccc2)C[C@H]1C(=O)N[C@@H](CC(F)F)C(=O)NCCc1cccc(/C=C/C(=O)O)c1F)C(C)C [Compound 560],< 1,

Structure (SMILES),"IC50 [2, 3] [µM]",further results
CC(C)COC(=O)N[C@H](C(=O)N1C[C@H](c2ccccc2)C[C@H]1C(=O)N[C@@H](CC(F)F)C(=O)NCCc1cc(OC(C(=O)O)c2cccc(Cl)c2)ccc1Cl)C(C)C (mixture of isomers) [Compound 571],< 10,
CC(C)COC(=O)N[C@H](C(=O)N1C[C@H](c2ccccc2)C[C@H]1C(=O)N[C@@H](CC(F)F)C(=O)NCCc1cn(CCC(=O)O)c2ccccc12)C(C)C [Compound 573],< 100,
CC(C)COC(=O)N[C@H](C(=O)N1C[C@H](c2ccccc2)C[C@H]1C(=O)N[C@@H](CC(F)F)C(=O)NCCc1cccc(/C=C/C(=O)O)c1)C(C)C [Compound 558],< 10,
CC(C)COC(=O)N[C@H](C(=O)N1C[C@H](SCc2ccccc2)C[C@H]1C(=O)N[C@@H](CC(F)F)C(=O)NCCc1c(F)cc(C(=O)O)cc1F)C(C)C [Compound 544],< 10,
CC[C@H](NC(=O)[C@@H]1C[C@@H](c2ccccc2)CN1C(=O)[C@@H](NC(=O)OCC(C)C)C(C)C)C(=O)NCCc1c(F)cc(C(=O)O)cc1F [Compound 525],< 100,
CC(C)COC(=O)N[C@H](C(=O)N1C[C@H](C2CCCCC2)C[C@H]1C(=O)N[C@@H](CC(F)F)C(=O)NCCc1c(F)cc(C(=O)O)cc1F)C(C)(C)C [Compound 536],< 10,
CC(C)COC(=O)N[C@H](C(=O)N1C[C@H](c2ccccc2)C[C@H]1C(=O)N[C@@H](CC(F)F)C(=O)NCCc1c(F)cc(C(=O)O)cc1F)C(C)(C)C [Compound 537],< 10,
CC[C@H](C)[C@H](NC(=O)OCC(C)C)C(=O)N1C[C@H](c2ccccc2)C[C@H]1C(=O)N[C@@H](CC(F)F)C(=O)NCCc1c(F)cc(C(=O)O)cc1F [Compound 534],< 10,
CC(C)COC(=O)N[C@H](C(=O)N1C[C@H](C2CCCCC2)C[C@H]1C(=O)N[C@@H](CC(F)F)C(=O)NCCc1c(F)cc(C(=O)O)cc1F)C1CCCC1 [Compound 538],< 1,
CCCS[C@@H]1C[C@@H](C(=O)N[C@@H](CC(F)F)C(=O)NCCc2c(F)cc(C(=O)O)cc2F)N(C(=O)[C@@H](NC(=O)OCC(C)C)C(C)C)C1 [Compound 548],< 1,
CC(C)COC(=O)N[C@H](C(=O)N1C[C@H](OCc2ccccc2)C[C@H]1C(=O)N[C@@H](CC(F)(F)F)C(=O)NCCc1c(F)cc(C(=O)O)cc1F)C(C)C [Compound 530],< 10,
CC(C)COC(=O)N[C@H](C(=O)N1C[C@H](c2ccccc2)C[C@H]1C(=O)N[C@@H](CC(F)F)C(=O)NCCc1ccc(-c2noc(=O)[nH]2)cc1)C(C)C [Compound 519],< 100,
CC(C)COC(=O)N[C@H](C(=O)N1C[C@H](C2CCCCC2)C[C@H]1C(=O)N[C@@H](CC(F)F)C(=O)NCCc1c(F)cc(C(=O)O)cc1F)C(C)C [Compound 528],< 1,
CC(C)COC(=O)N[C@H](C(=O)N1C[C@H](S(=O)(=O)C2CCCCC2)C[C@H]1C(=O)N[C@@H](CC(F)F)C(=O)NCCc1c(F)cc(C(=O)O)cc1F)C(C)C [Compound 553],< 1,
CC(C)COC(=O)N[C@H](C(=O)N1C[C@H](c2ccccc2)C[C@H]1C(=O)N[C@@H](CC(F)F)C(=O)NCCc1ccc(-c2nn[nH]n2)cc1)C(C)C [Compound 518],< 10,
CCC[S+]([O-])[C@@H]1C[C@@H](C(=O)N[C@@H](CC(F)F)C(=O)NCCc2c(F)cc(C(=O)O)cc2F)N(C(=O)[C@@H](NC(=O)OCC(C)C)C(C)C)C1 (some centres unmarked) [Compound 549],< 10,
CC(C)COC(=O)N[C@H](C(=O)N1C[C@H](C2CCCCC2)C[C@H]1C(=O)N[C@@H](CC(F)F)C(=O)NCCc1ccc(C(=O)O)cc1F)C(C)C [Compound 531],< 10,
CC(C)COC(=O)N[C@@H](CCC(=O)O)C(=O)N1C[C@H](c2ccccc2)C[C@H]1C(=O)N[C@@H](CS)C(=O)NCCc1ccc(C(=O)O)cc1 [Compound 512],< 100,
CC(C)COC(=O)N[C@H](C(=O)N1C[C@H](c2ccccc2)C[C@H]1C(=O)N[C@@H](CC(F)F)C(=O)NCCc1ccc(C(=O)O)cc1)C(C)C [Compound 517],< 10,
